Measured values taken from patent US7655629B2, “Peptides and their use for the treatment of HIV infections” (priority 2002, dated 2010).
Positions of bridges follow the written chain, without caps; N, C: chain ends. Non-standard residues stand in square brackets, D forms with d. Residues, ends and D or L forms follow the SMILES beside them. Tic = O=C(O)[C@@H]1Cc2ccccc2CN1; Cha = N[C@@H](CC1CCCCC1)C(=O)O

Assays:
[1] = tested on: X4-tropic HIV-1 NL4-3; settings: for IC50: read-out: IC50 NL4-3, P4-CCR5 cells, HIV-1 NL4-3, peptide 2 h before infection, readout three days after infection
Source text: (§1) These cells contain the β-galactosidase reporter gene under the control of the HIV-1 promoter. Thus, activation of the β-galactosidase reporter gene allows to measure the efficiency of HIV-1 infection and thus to quantitate the potency of HIV-1 inhibitors (Detheux M. et al., 2000; Journal of Experimental Medicine 192, 1501-1508; Münch et al., 2002; Antimicrobial Agents and Chemotherapy 46, 982-990).
(§2) To perform a typical infection assay, P4-CCR5 cells (Charneau et al., 1994; Journal of Molecular Biology 241, 651-662; Charneau et al., Virology. 1994 205, 247-53) were kept in RPMI 1640 medium supplemented with 10 volume % FCS. This cell line coexpresses CD4 and both HIV-1 coreceptors CCR5 and CXCR4 and contains the β-galactosidase gene under the control of the HIV-1 promoter. Virus stocks were generated by the calcium coprecipitation method as described (Detheux et al., J Exp Med. 192:1501-8; 2000), and the p24 antigen levels were quantitated with an HIV p24 ELISA kit obtained through the NIH AIDS Reagent Program. Cells were seeded in flat-bottomed 96-well dishes, cultured overnight, and incubated with the different doses of peptide for 2 h before infection with virus containing 1 ng of p24 antigen in a total volume of […] of medium. After overnight incubation, cells were washed twice and cultivated in fresh culture medium without inhibitory peptide. Three days after infection the cells were lysed, and infectivity was quantitated using the Galacto-Light Plus™ chemiluminescence reporter assay kit (Tropix, Bedford, Mass.) as recommended by the manufacturer. All infections were performed in quintuplicate.

[2] = tested on: HIV-1 NL4-3 DTV; settings: read-out: IC50 DTV, P4-CCR5 cells, peptide 2 h before infection, readout three days after infection
Source text: as §1, §2

Row | Molecule | IC50 [1] | IC50 [2] | increase in anti-HIV activity in comparison to VIRIP ([1]; from IC50 against two HIV-1 strains (NL4-3, DTV))
1 | CC[C@H](C)[C@H](NC(=O)[C@H](C)NC(=O)[C@H](CCC(=O)O)NC(=O)[C@@H](N)CC(C)C)C(=O)N1CCC[C@H]1C(=O)N[C@@H](CCSC)C(=O)N[C@@H](CO)C(=O)N[C@H](C(=O)N1CCC[C@H]1C(=O)N1CCC[C@@H]1C(=O)N[C@@H](CCC(=O)O)C(=O)N[C@H](C(=O)N[C@@H](CC(C)C)C(=O)N[C@@H](Cc1ccccc1)C(=O)NCC(=O)N[C@@H](CCCCN)C(=O)N1CCC[C@H]1C(=O)N[C@@H](Cc1ccccc1)C(=O)N[C@H](C(=O)N[C@@H](Cc1ccccc1)C(=O)O)C(C)C)C(C)C)[C@@H](C)CC [VIR-191, LEAIPMSIPpEVLFGKPFVF] (H-LEAIPMSIP[dP]EVLFGKPFVF-OH) | 1790 nM | 560 nM | 
2 | H-LEAIPMSIPPELAFAKPFVF-OH [VIR-182] | 2250 nM | 2970 nM | 
3 | CC[C@H](C)[C@H](NC(=O)[C@H](C)NC(=O)[C@H](CCC(=O)O)NC(=O)[C@@H](N)CC(C)C)C(=O)N1CCC[C@H]1C(=O)N[C@@H](CCSC)C(=O)N[C@@H](CO)C(=O)N[C@H](C(=O)N1CCC[C@H]1C(=O)N1CCC[C@@H]1C(=O)N[C@@H](CCC(=O)O)C(=O)N[C@H](C(=O)N[C@@H](C)C(=O)N[C@@H](Cc1ccccc1)C(=O)N[C@@H](CC(N)=O)C(=O)N[C@@H](CCCCN)C(=O)N1Cc2ccccc2C[C@H]1C(=O)N[C@@H](Cc1ccccc1)C(=O)N[C@H](C(=O)N[C@@H](Cc1ccccc1)C(=O)O)C(C)C)C(C)C)[C@@H](C)CC [VIR-268, LEAIPMSIPpEVAFNK(L-Tic)FVF] (H-LEAIPMSIP[dP]EVAFNK[Tic]FVF-OH) | 1730 nM | 1480 nM | 
4 | CC[C@H](C)[C@H](NC(=O)[C@H](C)NC(=O)[C@H](CCC(=O)O)NC(=O)[C@@H](N)CC(C)C)C(=O)N1CCC[C@H]1C(=O)N[C@@H](CCSC)C(=O)N[C@@H](CO)C(=O)N[C@H](C(=O)N1CCC[C@H]1C(=O)N1CCC[C@@H]1C(=O)N[C@@H](CCC(=O)O)C(=O)N[C@H](C(=O)N[C@@H](CC1CCCCC1)C(=O)N[C@@H](Cc1ccccc1)C(=O)N[C@@H](CC(N)=O)C(=O)N[C@@H](CCCCN)C(=O)N1CCC[C@H]1C(=O)N[C@@H](Cc1ccccc1)C(=O)N[C@H](C(=O)N[C@@H](Cc1ccccc1)C(=O)O)C(C)C)C(C)C)[C@@H](C)CC [VIR-257, LEAIPMSIPpEV(cyclohexylalanine)FNKPFVF] (H-LEAIPMSIP[dP]EV[Cha]FNKPFVF-OH) | 860 nM | 660 nM | 
5 | H-LEAIPMSIPPEFAFNKDFVF-OH [VIR-243] | 2160 nM | 1980 nM | 
6 | CC[C@H](C)[C@H](NC(=O)[C@@H]1CCCN1C(=O)[C@@H](NC(=O)[C@H](C)NC(=O)[C@H](CCC(=O)O)NC(=O)[C@@H](N)CC(C)C)[C@@H](C)CC)C(=O)N[C@@H](CO)C(=O)N[C@H](C(=O)N1CCC[C@H]1C(=O)N1CCC[C@@H]1C(=O)N[C@@H](CCC(=O)O)C(=O)N[C@H](C(=O)N[C@@H](C)C(=O)N[C@@H](Cc1ccccc1)C(=O)N[C@@H](CC(N)=O)C(=O)N[C@@H](CCCCN)C(=O)N1Cc2ccccc2C[C@H]1C(=O)N[C@@H](Cc1ccccc1)C(=O)N[C@H](C(=O)N[C@@H](Cc1ccccc1)C(=O)O)C(C)C)C(C)C)[C@@H](C)CC [VIR-447, LEAIPISIPpEVAFNK(L-Tic)FVF] (H-LEAIPISIP[dP]EVAFNK[Tic]FVF-OH) | 620 nM |  | 
7 | CC[C@H](C)[C@H](NC(=O)[C@H](CC(=O)O)NC(=O)[C@H](CCC(=O)O)NC(=O)[C@@H](N)CC(C)C)C(=O)N1CCC[C@H]1C(=O)N[C@@H](CCSC)C(=O)N[C@@H](CO)C(=O)N[C@H](C(=O)N1CCC[C@H]1C(=O)N1CCC[C@@H]1C(=O)N[C@@H](CCC(=O)O)C(=O)N[C@H](C(=O)N1Cc2ccccc2C[C@H]1C(=O)N[C@@H](Cc1ccccc1)C(=O)N[C@@H](CC(N)=O)C(=O)N[C@@H](CCCCN)C(=O)N1CCC[C@H]1C(=O)N[C@@H](Cc1ccccc1)C(=O)N[C@H](C(=O)N[C@@H](Cc1ccccc1)C(=O)O)C(C)C)C(C)C)[C@@H](C)CC [VIR-452, LEDIPMSIPpEV(L-Tic)FNKPFVF] (H-LEDIPMSIP[dP]EV[Tic]FNKPFVF-OH) | 184 nM |  | 
8 | CC[C@H](C)[C@H](NC(=O)[C@@H]1CCCN1C(=O)[C@@H](NC(=O)[C@H](C)NC(=O)[C@H](CCC(=O)O)NC(=O)[C@@H](N)CC(C)C)[C@@H](C)CC)C(=O)N[C@@H](CO)C(=O)N[C@H](C(=O)N1CCC[C@H]1C(=O)N1CCC[C@@H]1C(=O)N[C@@H](CCC(=O)O)C(=O)N[C@H](C(=O)N[C@@H](Cc1c[nH]c2ccccc12)C(=O)N[C@@H](Cc1ccccc1)C(=O)N[C@@H](CC(N)=O)C(=O)N[C@@H](CCCCN)C(=O)N1CCC[C@H]1C(=O)N[C@@H](Cc1ccccc1)C(=O)N[C@H](C(=O)N[C@@H](Cc1ccccc1)C(=O)O)C(C)C)C(C)C)[C@@H](C)CC [VIR-298, LEAIPISIPpEVWFNKPFVF] (H-LEAIPISIP[dP]EVWFNKPFVF-OH) | 969 nM |  | 
9 | CC[C@H](C)[C@H](NC(=O)[C@H](C)NC(=O)[C@H](CCC(=O)O)NC(=O)[C@@H](N)CC(C)C)C(=O)N1CCC[C@H]1C(=O)N[C@H]1CSSC[C@@H](C(=O)N[C@H](C(=O)N[C@@H](C)C(=O)N[C@@H](Cc2ccccc2)C(=O)N[C@@H](CC(N)=O)C(=O)N[C@@H](CCCCN)C(=O)N2CCC[C@H]2C(=O)N[C@@H](Cc2ccccc2)C(=O)N[C@H](C(=O)N[C@@H](Cc2ccccc2)C(=O)O)C(C)C)C(C)C)NC(=O)[C@H]2CCCN2C(=O)[C@@H]2CCCN2C(=O)[C@H]([C@@H](C)CC)NC(=O)CNC1=O [VIR-355, LEAIPCGIPpCVAFNKPFVF] (H-LEAIPCGIP[dP]CVAFNKPFVF-OH; disulfide 6-11) | 582 nM |  | 
10 | CC[C@H](C)[C@H](NC(=O)[C@H](C)NC(=O)[C@H](CCC(=O)O)NC(=O)[C@@H](N)CC(C)C)C(=O)N1CCC[C@H]1C(=O)N[C@H]1CSSC[C@@H](C(=O)N[C@@H](Cc2ccccc2)C(=O)N[C@@H](CC(C)C)C(=O)N[C@@H](Cc2ccccc2)C(=O)NCC(=O)N[C@@H](CCCCN)C(=O)N2CCC[C@H]2C(=O)N[C@@H](Cc2ccccc2)C(=O)N[C@H](C(=O)N[C@@H](Cc2ccccc2)C(=O)O)C(C)C)NC(=O)[C@@H]2CCCN2C(=O)[C@@H]2CCCN2C(=O)[C@H]([C@@H](C)CC)NC(=O)[C@H](CO)NC1=O [VIR-280] (H-LEAIPCSIPPCFLFGKPFVF-OH; disulfide 6-11) |  |  | 161 fold
11 | H-LEAIPISIPPEVFFGKPFVF-OH [VIR-284] | 281 nM |  | 
12 | CC[C@H](C)[C@H](NC(=O)[C@@H]1CCCN1C(=O)[C@@H](NC(=O)[C@H](CC(=O)O)NC(=O)[C@H](CCC(=O)O)NC(=O)[C@@H](N)CC(C)C)[C@@H](C)CC)C(=O)NCC(=O)N[C@H](C(=O)N1CCC[C@H]1C(=O)N1CCC[C@@H]1C(=O)N[C@@H](CCC(=O)O)C(=O)N[C@H](C(=O)N[C@@H](C)C(=O)N[C@@H](Cc1ccccc1)C(=O)N[C@@H](CC(N)=O)C(=O)N[C@@H](CCCCN)C(=O)N1Cc2ccccc2C[C@H]1C(=O)N[C@@H](Cc1ccccc1)C(=O)N[C@H](C(=O)N[C@@H](Cc1ccccc1)C(=O)O)C(C)C)C(C)C)[C@@H](C)CC [VIR-488, LEDIPIGIPpEVAFNK(L-Tic)FVF] (H-LEDIPIGIP[dP]EVAFNK[Tic]FVF-OH) | 415 nM |  | 
